Laboratory results as given in patent publication US8575091B1, “Amylin analogues and pharmaceutical compositions thereof” (Novo Nordisk A/S, priority 2012, dated 2013).
pEC50, pIC50: −log10 of the molar value. Read-outs that look alike come from different tables or passages of the source. Numbered stars: 1 amine (or outer) side, 2 acyl side, 3 side chain; on linkers, the order of the positions; unused ones are H or OH. Bridge positions count the residues as written; N and C are the ends. Side chains are listed from the residue outwards. Peptide text beside a SMILES is read from it. * marks the point of attachment. C20 diacid = O=C(O)CCCCCCCCCCCCCCCCCCC(=O)*; γGlu = O=C(O)[C@H](CCC(=O)[*:2])N[*:1]

Assays:
[1] = target: T1, human amylin receptor (amylin 3(a) receptor: human calcitonin receptor + RAMP-3) (Homo sapiens, UniProt O60896+P30988); assay: Assay (II)a functional assay, human amylin receptor (CRE luciferase, BHK cells); format: cell-based; conditions: for pEC50: read-out: hAmylin-R funct. EC50
T1 construct: expressed in transfected cells
T1 sequence (P30988 25-474): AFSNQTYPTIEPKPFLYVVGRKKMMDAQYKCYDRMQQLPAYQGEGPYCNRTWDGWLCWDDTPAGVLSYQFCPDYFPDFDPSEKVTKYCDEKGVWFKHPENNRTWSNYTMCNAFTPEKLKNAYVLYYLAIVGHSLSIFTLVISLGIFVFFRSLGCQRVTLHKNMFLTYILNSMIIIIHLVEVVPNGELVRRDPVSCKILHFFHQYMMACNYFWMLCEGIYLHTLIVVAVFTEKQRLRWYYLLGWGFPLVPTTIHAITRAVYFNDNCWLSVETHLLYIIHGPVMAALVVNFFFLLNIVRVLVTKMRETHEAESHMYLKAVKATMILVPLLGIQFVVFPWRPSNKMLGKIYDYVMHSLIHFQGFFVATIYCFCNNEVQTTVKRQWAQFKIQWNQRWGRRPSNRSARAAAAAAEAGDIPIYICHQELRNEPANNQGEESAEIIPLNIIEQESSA
T1 sequence (O60896 24-148 partner): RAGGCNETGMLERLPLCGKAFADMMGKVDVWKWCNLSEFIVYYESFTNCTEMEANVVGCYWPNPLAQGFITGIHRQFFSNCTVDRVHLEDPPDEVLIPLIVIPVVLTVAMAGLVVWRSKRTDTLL

[2] = target: T2, human calcitonin receptor (Homo sapiens, UniProt P30988); assay: Assay (II)a functional assay, human calcitonin receptor (CRE luciferase, BHK cells);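 also: luminescence from a CRE-driven luciferase reporter, read by single photon counting after cells were exposed to test samples for 3 h at 37 °C under 5% CO2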; format: cell-based; conditions: read-out: hCTR funct. EC50
T2 construct: expressed in transfected cells
T2 sequence (P30988 25-474): T1 sequence (P30988 25-474)

human amylin receptor = target: T3, human amylin receptor (Homo sapiens, UniProt O60896+P30988); assay: Assay (V) binding to the human amylin receptor (SPA, 125I-rat amylin); conditions: for pIC50: read-out: hAmylin-R bind IC50; for Ratio hCT/hAmylin binding: human binding ratio, included for comparison
T3 construct: expressed in transfected cells
T3 sequence (P30988 25-474): T1 sequence (P30988 25-474)
T3 sequence (O60896 24-148 partner): T1 sequence (O60896 24-148 partner)
Procedure, shortened: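 SPA competition binding on membranes from Amylin 3(a)/CRE-luc cells, 35 ng/μL membranes with 0.05 mg/well beads. Buffer 50 mM Hepes pH 7.4, 1 mM CaCl2, 5 mM MgCl2, 0.1% OA, 0.02% Tween20. IC50 from one-site competition fit as affinity measure.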

rat amylin receptor = target: T4, rat amylin receptor (Rattus norvegicus, UniProt P32214+Q9JJ73); assay: Assay (VI) binding to the rat amylin receptor; conditions: rCTR bind IC50 divided by rAmylin-R bind IC50
T4 construct: expressed in transfected cells; host or cells: BHK tk'ts 13 (transient, FuGENE 6), membranes
T4 sequence (P32214 25-479 isoform P32214-2 limits assumed): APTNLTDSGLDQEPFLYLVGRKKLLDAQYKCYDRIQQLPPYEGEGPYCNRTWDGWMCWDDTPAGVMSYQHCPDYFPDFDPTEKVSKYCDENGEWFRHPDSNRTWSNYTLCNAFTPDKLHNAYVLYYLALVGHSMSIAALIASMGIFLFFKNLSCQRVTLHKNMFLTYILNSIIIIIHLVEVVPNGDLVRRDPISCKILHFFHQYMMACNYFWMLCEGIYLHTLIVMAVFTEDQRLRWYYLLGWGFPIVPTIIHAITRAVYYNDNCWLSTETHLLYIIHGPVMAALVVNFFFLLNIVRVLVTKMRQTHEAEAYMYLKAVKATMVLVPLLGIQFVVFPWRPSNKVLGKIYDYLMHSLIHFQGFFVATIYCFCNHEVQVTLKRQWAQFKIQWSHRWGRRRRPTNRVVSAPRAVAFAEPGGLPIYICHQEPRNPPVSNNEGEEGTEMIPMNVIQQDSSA
T4 sequence (Q9JJ73 23-147 partner): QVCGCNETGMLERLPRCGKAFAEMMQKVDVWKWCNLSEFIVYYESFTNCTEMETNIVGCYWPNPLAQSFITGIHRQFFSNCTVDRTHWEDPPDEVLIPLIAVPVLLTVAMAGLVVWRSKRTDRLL
Description: Assay (VI)—Determination of the Binding to the Rat Amylin Receptor
The assay was performed as described above (Assay (V)—Determination of binding to the human amylin receptor) with the exception that we used membranes prepared from BHK tk'ts 13 cells that were transiently transfected with the rat calcitonin receptor rat RAMP 3 at an equimolar ratio […]. The BHK tk'ts 13 cells were transiently transfected with rat calcitonin receptor using FuGENE® 6 (Roche), according to the manufacturer's recommendations. Cells were grown in DMEM with 10% FBS and 1% Pen/Strep. Approximately 48 hours after transfection, the cells were harvested and membranes were prepared.

[3] = target: T2, human calcitonin receptor; assay: Assay (VII) binding to the human calcitonin receptor (SPA, 125I-Calcitonin); conditions: read-out: hCTR bind IC50;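 also: cell membranes coupled to SPA beads, competitive displacement read by scintillation counting, IC50 derived from a one-site competition fit as a measure of receptor affinity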
[4] = Table 6, human functional selectivity (hCTR EC50 / hAmylin-R EC50)
[5] = functional assay, human amylin receptor
[6] = human amylin receptor membranes, SPA
[7] = Table 6a, human functional selectivity (hCTR EC50 / hAmylin-R EC50), at least 5
[8] = Table 6j, hCTR funct. EC50 / hAmylin-R funct. EC50
[9] = Table 6k, hCTR funct. EC50 / hAmylin-R funct. EC50

Ratio hCT/hAmylin funct. [1, 4] | pEC50 [1, 5] | pEC50 [2] | pIC50 (human amylin receptor; [6]) | Ratio hCT/hAmylin binding (human amylin receptor) | Ratio rCT/rAmylin binding (rat amylin receptor) | pIC50 [3] | Ratio hCT/hAmylin funct. [1, 7] | Ratio hCT/hAmylin funct. ([1]; Table 6i, hCTR funct. EC50 / hAmylin-R funct. EC50) | pEC50 ([1]; Table 6i, human amylin receptor functional) | Ratio hCT/hAmylin funct. [1, 8] | Ratio hCT/hAmylin funct. [1, 9] | Ratio rCT/rAmylin binding (rat amylin receptor; Table 7b) | Ratio hCT/hAmylin funct. ([1]; hCTR funct. EC50 divided by hAmylin-R funct. EC50) | pIC50 (human amylin receptor; binding to human amylin receptor) | Structure (SMILES)
1.8 | 10.00 | 9.73 | 9.85 | 2.5 | 5.0 | 9.45 | – | – | – | – | – | – | – | – | CC[C@H](C)[C@H](NC(=O)[C@H](C)NC(=O)CNC(=O)[C@H](Cc1ccccc1)NC(=O)[C@H](CC(N)=O)NC(=O)[C@@H]1CCCN1C(=O)[C@H](CO)NC(=O)[C@H](CO)NC(=O)[C@H](Cc1c[nH]cn1)NC(=O)[C@H](CCCNC(=N)N)NC(=O)[C@H](CC(C)C)NC(=O)[C@H](Cc1ccccc1)NC(=O)[C@H](CCC(=O)O)NC(=O)[C@H](C)NC(=O)[C@H](CC(C)C)NC(=O)[C@H](CCCNC(=N)N)NC(=O)[C@H](CCC(N)=O)NC(=O)[C@@H](NC(=O)[C@H](C)NC(=O)[C@@H]1CSSC[C@H](NC(=O)[C@@H](N)CCCCNC(=O)CC[C@H](NC(=O)CCCCCCCCCCCCCCCCCCC(=O)O)C(=O)O)C(=O)N[C@@H](CC(N)=O)C(=O)N[C@@H]([C@@H](C)O)C(=O)N[C@@H](C)C(=O)N[C@@H]([C@@H](C)O)C(=O)N1)[C@@H](C)O)C(=O)N1CCC[C@H]1C(=O)N[C@@H](CO)C(=O)N[C@@H](CO)C(=O)N[C@H](C(=O)N[C@@H](CC(N)=O)C(=O)N[C@H](C(=O)NCC(=O)N[C@@H](CO)C(=O)N[C@@H](CC(N)=O)C(=O)N[C@H](C(=O)N1CCC[C@H]1C(N)=O)[C@@H](C)O)C(C)C)[C@@H](C)O [Example 12] (H-K([γGlu-C20 diacid])CNTATCATQRLAEFLRHSSPNFGAIPSSTNVGSNTP-NH2; disulfide 2-7)
6.6 | – | 9.49 | 10.00 | – | 34.0 | 8.96 | 6.6 | 6.6 | 10.30 | 6.6 | 6.6 | 34.0 | – | – | CC[C@H](C)[C@H](NC(=O)[C@H](C)NC(=O)CNC(=O)[C@H](Cc1ccccc1)NC(=O)[C@H](CC(N)=O)NC(=O)[C@@H]1CCCN1C(=O)[C@H](CO)NC(=O)[C@H](CO)NC(=O)[C@H](Cc1c[nH]cn1)NC(=O)[C@H](CCCNC(=N)N)NC(=O)[C@H](CC(C)C)NC(=O)[C@H](Cc1ccccc1)NC(=O)[C@H](CCC(=O)O)NC(=O)[C@H](C)NC(=O)[C@H](CC(C)C)NC(=O)[C@H](CCCNC(=N)N)NC(=O)[C@H](CCC(N)=O)NC(=O)[C@@H](NC(=O)[C@H](C)NC(=O)[C@@H]1CSSC[C@H](NC(=O)[C@H](CCCCN)NC(=O)CC[C@H](NC(=O)CCCCCCCCCCCCCCCCCCC(=O)O)C(=O)O)C(=O)N[C@@H](CC(N)=O)C(=O)N[C@@H]([C@@H](C)O)C(=O)N[C@@H](C)C(=O)N[C@@H]([C@@H](C)O)C(=O)N1)[C@@H](C)O)C(=O)N1CCC[C@H]1C(=O)N[C@@H](CO)C(=O)N[C@@H](CO)C(=O)N[C@H](C(=O)N[C@@H](CC(N)=O)C(=O)N[C@H](C(=O)NCC(=O)N1CCC[C@H]1C(=O)N[C@@H](CC(N)=O)C(=O)N[C@H](C(=O)N[C@@H](Cc1ccc(O)cc1)C(N)=O)[C@@H](C)O)C(C)C)[C@@H](C)O [Example 32] ({C20 diacid-γGlu}-KCNTATCATQRLAEFLRHSSPNFGAIPSSTNVGPNTY-NH2; disulfide 2-7)
8.7 | 10.00 | 9.07 | 9.24 | – | 67.0 | 8.10 | 8.7 | – | – | 8.7 | 8.7 | 67.0 | – | – | CC[C@H](C)[C@H](NC(=O)[C@H](C)NC(=O)CNC(=O)[C@H](Cc1ccccc1)NC(=O)[C@H](CC(N)=O)NC(=O)[C@@H]1CCCN1C(=O)[C@H](CO)NC(=O)[C@H](CO)NC(=O)[C@H](Cc1c[nH]cn1)NC(=O)[C@H](CCCNC(=N)N)NC(=O)[C@H](CC(C)C)NC(=O)[C@H](Cc1ccccc1)NC(=O)[C@H](CC(N)=O)NC(=O)[C@H](C)NC(=O)[C@H](CC(C)C)NC(=O)[C@H](CCCNC(=N)N)NC(=O)[C@H](CCC(N)=O)NC(=O)[C@@H](NC(=O)[C@H](C)NC(=O)[C@@H]1CSSC[C@H](NC(=O)[C@H](CCCCN)NC(=O)CC[C@H](NC(=O)CCCCCCCCCCCCCCCCCCC(=O)O)C(=O)O)C(=O)N[C@@H](CC(N)=O)C(=O)N[C@@H]([C@@H](C)O)C(=O)N[C@@H](C)C(=O)N[C@@H]([C@@H](C)O)C(=O)N1)[C@@H](C)O)C(=O)N1CCC[C@H]1C(=O)N[C@@H](CO)C(=O)N[C@@H](CO)C(=O)N[C@H](C(=O)N[C@@H](CC(N)=O)C(=O)N[C@H](C(=O)NCC(=O)N1CCC[C@H]1C(=O)N[C@@H](CCC(=O)O)C(=O)N[C@H](C(=O)N[C@@H](Cc1ccc(O)cc1)C(N)=O)[C@@H](C)O)C(C)C)[C@@H](C)O [Example 29] ({C20 diacid-γGlu}-KCNTATCATQRLANFLRHSSPNFGAIPSSTNVGPETY-NH2; disulfide 2-7)
1.0 | 9.79 | 9.80 | 9.43 | 1.4 | 3.6 | 9.27 | – | – | – | – | – | – | 1.0 | 9.43 | CC(C)C[C@H](NC(=O)[C@H](CCCNC(=N)N)NC(=O)[C@H](CCC(N)=O)NC(=O)[C@@H](NC(=O)[C@H](C)NC(=O)[C@@H]1CSSC[C@H](NC(=O)[C@H](CCCCN)NC(=O)CC[C@H](NC(=O)CCCCCCCCCCCCCCCCCCC(=O)O)C(=O)O)C(=O)N[C@@H](CC(N)=O)C(=O)N[C@@H]([C@@H](C)O)C(=O)N[C@@H](C)C(=O)N[C@@H]([C@@H](C)O)C(=O)N1)[C@@H](C)O)C(=O)N[C@@H](C)C(=O)N[C@@H](CCC(=O)O)C(=O)N[C@@H](Cc1ccccc1)C(=O)N[C@@H](CC(C)C)C(=O)N[C@@H](CCCNC(=N)N)C(=O)N[C@@H](Cc1c[nH]cn1)C(=O)N[C@@H](CO)C(=O)N[C@@H](CO)C(=O)N1CCC[C@H]1C(=O)N[C@@H](CC(N)=O)C(=O)N[C@@H](Cc1ccccc1)C(=O)NCC(=O)N[C@@H](C)C(=O)N1CCC[C@H]1C(=O)N[C@@H](CC(C)C)C(=O)N[C@@H](CO)C(=O)N[C@@H](CO)C(=O)N[C@H](C(=O)N[C@@H](CC(N)=O)C(=O)N[C@H](C(=O)NCC(=O)N[C@@H](CO)C(=O)N[C@@H](CC(N)=O)C(=O)N[C@H](C(=O)N1CCC[C@H]1C(N)=O)[C@@H](C)O)C(C)C)[C@@H](C)O [Example 5] ({C20 diacid-γGlu}-KCNTATCATQRLAEFLRHSSPNFGAPLSSTNVGSNTP-NH2; disulfide 2-7)
